# Molecular target: T1, Bcl-XL (Homo sapiens, UniProt Q07817)
# T1 construct: GST tagged Bcl-XL ΔC25 protein (0.6 nM Final concentration)
# Test: Alphascreen competition assay, GST tagged Bcl-XL with biotinylated Bim BH3-26 peptide
# Type: binding
# Settings: GST tagged Bcl-XL ΔC25 protein 0.6 nM, biotinylated Bim BH3-26 peptide 5.0 nM, read-out: IC50 against Bcl-XL
# Source text: The following example describes the measurement of competition of compounds of the invention with Bim26-mer for a Bcl-2 homologue binding site.
# Alphascreen (Amplified Luminescent Proximity Homogenous Assay) is a bead based technology which measures the interaction between molecules. The assay consists of two hydrogel coated beads which, when brought into close proximity by a binding interaction, results in the transfer of singlet oxygen from a donor bead to an acceptor bead.
# Upon binding and excitation with laser light at 680 nm, a photosensitizer in the donor bead converts ambient oxygen to a more excited singlet state. This singlet oxygen then diffuses and reacts with a chemiluminescer in the acceptor bead. Fluorophores within the same bead are activated and result in the emission of light at 580-620 nm.
# Screening of the compounds of the invention is performed using the Alphascreen GST (glutathione s-transferase) detection kit system. […] To this reaction mix, anti-GST coated acceptor beads and Streptavidin coated donor beads, both at 15 μg/ml Final concentration, are added and the assay mixture is incubated for 4 hours at room temperature before reading. […]
# Assay buffer contains 50 mM Hepes pH 7.4, 10 mM DTT, 100 mM NaCl, 0.05% Tween and 0.1 mg/ml casein. […] Assays are performed in 384 well white Optiplates and is analyzed on the PerkinElmer Fusion alpha plate reader (Ex680, Em520-620 […]). […]
# T1 sequence (Q07817 1-208 limits assumed, species assumed): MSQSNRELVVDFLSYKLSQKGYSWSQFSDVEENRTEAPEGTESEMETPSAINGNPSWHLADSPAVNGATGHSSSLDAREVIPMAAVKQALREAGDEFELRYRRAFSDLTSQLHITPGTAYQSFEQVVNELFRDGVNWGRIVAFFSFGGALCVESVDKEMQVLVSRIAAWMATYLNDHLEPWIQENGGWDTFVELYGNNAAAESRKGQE
structure (smiles),measurement,value
"O=[N+]([O-])c1cc(S(=O)(=O)Nc2ncnc3cc(-c4ccc(F)cc4)ccc23)ccc1NCCSc1ccccc1 [compound c, N-(7-(4-fluorophenyl)quinazolin-4-yl)-3-nitro-4-(2-(phenylthio)ethylamino)benzenesulfonamide]",IC50,3000 nM

# Reference: patent publication US20110098305A1, “ARYLSULFONAMIDE COMPOUNDS, COMPOSITIONS AND METHODS OF USE” (priority 2008, published 2011)
